Source: patent US20250359555A1, “STREPTOMYCES VENEZUELAE FOR THE BIOLOGICAL CONTROL OF PLANT DISEASES” (UNIVERSITA' DEGLI STUDI DI MODENA E REGGIO EMILIA (80%), priority 2022, published 2025)

Experiments:
[1] = system: Fusarium spp.; assay: Field trial onion var. Elenka, emergence and bio-control under natural Fusarium spp. inoculum pressure (FC2020); type: in vivo; conditions: for number of emerged seedlings: control 182.50; for number of emerged plants: fourth survey (97 days after the sowing)
Protocol: (§1) In this experiment, onion var. Elenka was tested. The test experimental design was organized at randomized blocks for the 4 treatment types, each in duplicate. In the extended test carried out at an experimental field with high natural pressure of fungal inoculum of Fusarium spp., the experimental plots had the following dimensions: 1.8 m (width)×25 m (length) with four sowing rows per parcel The sowing was performed with mechanical seeder (mod. SPX 2015-Bassi Seminatrici, IT) at the density of 600,000 onion seeds per hectare. The surveys were carried out on a length of 20 meters, in the medial part of each respective plot. The recorded data of disease severity were subjected to statistical analysis of the variance (one-way ANOVA). The results were compared to the post hoc Tukey's HDS test.
In the preparation phase before the sowing, the fields were not treated with herbicides or fungicides. During the experimental test, carried out following the agronomical good practices, harmful bacteria and insects' infections were not observed, causing damages to the cultures during the experiment. The weeds were controlled according to the disciplinary regulation described in Cornell Vegetable Management Guidelines and Recommendations (Reiners et al., 2019).
Samples of symptomatic material such as onion roots and bulbs were withdrawn during the cultural season for isolating Fusarium-like fungal colonies and the subsequent identification thereof and confirmation of the etiological agent, through a preliminary analysis of conidial identification at the microscope, followed by a molecular analysis. The molecular identification was carried out through the amplification of the conserved region ITS by polymerase chain reaction (PCR) according to White et al., 1990. The amplification products were then purified and sequenced at Bio-Fab Research s.r.l. (Rome, IT). The nucleotide sequences of ribosomal DNA of the conserved region ITS (Internal Transcription Spaces) were then analyzed through the program for the research of sequence similarity in the international DNA database BLAST (Basic Local Alignment Search Tool;//www.ncbi.nlm.nih.gov/BLAST).

[2] = system: onion var. Elenka; assay: Field trial onion var. Elenka, agronomic features (phenological development) (FC2020); type: in vivo, Allium cepa
Protocol: as §1
For the assay description, experimental design, agronomic practices, see Example 7. Before sowing, the fields were not treated with herbicides or fungicides. During the experimental field trial, carried out according to the best agronomical practices, harmful bacteria and insects' infections were not observed, causing damages to the cultures during the experiment. The weeds were managed according to the disciplinary regulations described in Cornell Vegetable Management Guidelines and Recommendations (Reiners et al., 2019). […]

[3] = system: Fusarium spp.; assay: Field trial onion var. Fundador, emergence and bio-control under natural Fusarium spp. inoculum pressure (FC2020); type: in vivo; conditions: first survey (18 days after the sowing), control 178.12
Protocol: as §1
For trial description, experimental design, agronomic practices, see Example 7. […]. The recorded data were subjected to statistical analysis of the variance (one-way ANOVA). The results were compared to the post hoc Tukey's HDS test.

[4] = system: fennel var. Crono; assay: Commercial field trial fennel var. Crono, emergence and germination (AQ2020); type: in vivo, Foeniculum vulgare
Description: In this experiment, the fennel var. Crono was used, in order to study the effect of Streptomyces sp. DLS 1568, applied as microbial coating agent, on the emergence and germination of the crop.
The test experimental design was organized at randomized blocks for the 4 treatment types, each in duplicate (replicate). In the experimental test carried out at a plot, the experimental parcels had the following dimensions: 1.5 m (width)×100 m (length) with four sowing rows per plot. The sowing was carried out with a mechanical seeder. During the experimental field trials, conducted according to the best agronomical practices, harmful bacteria and insects' infections were not observed, causing damages to the cultures during the experiment. Weeds were controlled according to the farms' integrated weed management.
The first survey was carried out 20 days after the sowing, assessing the whole length of each plots. The second survey was carried out 32 days after seed sowing and the third and last survey was done after one month from the second survey. The recorded data were subjected to the statistical analysis of the variance (one-way ANOVA). The results were compared to the post hoc Tukey's HDS test.

[5] = system: fennel var. Crono; assay: Field trial fennel var. Crono, emergence, germination and vigor (AQ2021); type: in vivo, Foeniculum vulgare; conditions: for average vigor index: scale 1-4 (Table 8)
Protocol: For the field trial description, experimental design, and the applied agronomic practices, see Example 10.
For this experiment, sowing was carried out with mechanical seeder. The first survey was carried out 14 days after the sowing, assessing the whole length of each plot: 1.5 m (width)×100 m (length) with four sowing rows per plot. The second survey was carried out one month after sowing and the third and last survey two months after sowing, assessing both number of emerged plants and vigor according to the assessment scale described in Table 8. The recorded data were subjected to the statistical analysis of the variance (one-way ANOVA). The results were compared to the post hoc Tukey's HDS test.

[6] = first survey (18 days after the sowing)
[7] = second survey (42 days after the sowing)

Compound	number of emerged seedlings [1, 6]	number of emerged plants [1]	number of plants emerged [1, 7]	plant height ([2]; second survey) [cm]	number of plants emerged [3]	Number of emerged plants, Survey 1 Average value ([4]; AQ2020, 20 days after the sowing, control 339.50)	Number of emerged plants, Survey 2 Average value ([4]; AQ2020, 32 days after sowing, after manual thinning, control 194.40)	Number of emerged plants, Survey 3 Average value ([4]; AQ2020, one month from the second survey, control 187.00)	Number of emerged plants, Survey 1 Average value ([5]; AQ2021, 14 days after the sowing, control 313.00)	Number of emerged plants, Survey 2 Average value ([5]; AQ2021, one month after sowing, after manual thinning, control 180.75)	average vigor index ([5]; AQ2021, second survey, control 2.34)	average vigor index ([5]; AQ2021, third survey, control 2.71)	Number of emerged plants, Survey 3 Average value ([5]; AQ2021, two months after sowing, control 173.00)	increase of the germinal emergence with respect to the control [1, 6] [%]	increase of the germinal emergence with respect to the treatment with Streptomyces sp. SA51 [1, 6] [%]	increase of the germinal emergence with respect to the treatment with fludioxonil [1, 6] [%]	increase of number of emerged plants with respect to Streptomyces sp. SA51 [1, 7] [%]	increase of number of emerged plants with respect to fludioxonil [1, 7] [%]	number of leaves ([2]; third survey)
N#Cc1c[nH]cc1-c1cccc2c1OC(F)(F)O2 [Fludioxonil, fludioxonil]	175.63	72.75	147.00	10.11	210.12	339.50	217.30	198.62	323.88	205.00	2.49	3.01	186.63	–	–	–	–	–	–
O=[O+][O-] [Ozone]	214.63	119.17	207.88	–	185.87	–	–	–	–	–	–	–	–	17	26	22	51	41	4.69
